Measured values reported in patent publication US7342018B2, “Urokinase inhibitors and uses thereof” (Wilex AG, priority 1998, dated 2008).

Columns and labels:
[1] = test system: BN-472 rat mammary carcinoma; assay: BN-472 rat mammary carcinoma model, single agent and combination with cytotoxics (Example 11); conditions: for anti-tumor effects (tumor size development, final tumor weight): once weekly administration i.v.
Experimental: WX-UK1 was dissolved in 5% w/v of D-mannitol to the appropriate dosage and administered once daily or twice weekly either subcutaneously (s.c.) or intraperitonally (i.p.).
Epirubicin (0.75-3 mg/kg body wight), paclitaxel (5-7.5 mg/kg) or 5-FU (20 and 40 mg/kg) was given once weekly by i.v. injection into the external jugular vein.
Control rats received the vehicle 5% w/v of D-mannitol once daily s.c.
A donor rat bearing a tumor of 20×20 mm was sacrificed, the tumor harvested ant the cortex part was sliced into cubes of approximately 10 mm^3 and the transplated orthotopically under the mammary fad pads of female Brown Norway rats.
Treatment was started three or six days (5-FU experiment) after tumor inoculation. Each treatment group consisted of 15 to 21 rats.
Tumor load is plotted as the average±standard error of the mean (SEM).
Tumor, organ weights as well as lung foci counts are presented in Box-Whisker graphs. […] Whiskers extend to the extreme lower 5th and upper 95th percentiles of values. Dots represent individual data.
P-values represent significance levels of pairwise comparisons of treatment groups versus vehicle control. For combination therapy experiments the P-values for the comparison of a cytostatic mono-therapy versus the combination therapy is given.

Urokinase (sc-urokinase) = molecular target: T1, Urokinase (sc-urokinase) (Homo sapiens, UniProt P00749); assay: In vitro inhibition of urokinase (chromogenic substrate, Dixon Ki); format: biochemical; conditions: in vitro inhibition of urokinase, 25° C, pH 8.0, 5% ethanol; read-out: Ki
T1 construct: purchased Ribosepharm GmbH, Haan, Germany
Experimental: To determine the inhibitory activity, 200 μl of Tris buffer (0.05 mol/l, containing the inhibitor, 0.154 mol/l NaCl, 5% ethanol pH 8.0), 25 μl of substrate (Pefachrome UK or Bz-βAla-Gly-Arg-pNA in H2O; Pentapharm Ltd., Basle, Switzerland) and 50 μl of sc-urokinase (Ribosepharm GmbH, Haan, Germany) were incubated at 25° C. After 3 min the reaction was stopped by adding 25 μl of acetic acid (50%), and the absorption at 405 nm was determined by means of a Microplate Reader (MR 5000, Dynatech, Denkendorf, Germany). Ki values were determined according to Dixon by linear regression using a computer program. The Ki values are the mean values of at least three determinations with a standard deviation of less than 25%.

Ki (Urokinase (sc-urokinase)) [nM]	Structure (SMILES)	anti-tumor effects (tumor size development, final tumor weight) [1]	thymus atrophy ([1]; rat, in vivo)
	COc1cccc2c1C(=O)c1c(O)c3c(c(O)c1C2=O)C[C@@](O)(C(=O)CO)C[C@@H]3O[C@H]1C[C@H](N)[C@@H](O)[C@H](C)O1 [epirubicin, reference compound]	Dose-dependent anti-tumor effects	thymus atrophy
	O=c1[nH]cc(F)c(=O)[nH]1 [Example 5-FU, 5-fluorouracil, reference compound]	Dose-dependent anti-tumor effects	
	CC(=O)O[C@H]1C(=O)[C@@]2(C)[C@H]([C@H](OC(=O)c3ccccc3)[C@]3(O)C[C@H](OC(=O)[C@H](O)[C@@H](NC(=O)c4ccccc4)c4ccccc4)C(C)=C1C3(C)C)[C@]1(OC(C)=O)CO[C@@H]1C[C@@H]2O [paclitaxel, reference compound]	Dose-dependent anti-tumor effects	
960	CCOC(=O)N1CCN(C(=O)C(Cc2cccc(C(=N)N)c2)NS(=O)(=O)c2c(C(C)C)cc(C(C)C)cc2C(C)C)CC1.Cl (centres unmarked) [D,L, Nα-(2,4,6-triisopropylphenylsulfonyl)-3-amidino-(D,L)-phenylalanine 4-ethoxycarbonylpiperazide hydrochloride]		
